Results from patent US7514435B2, “Pyrrolotriazine kinase inhibitors” (Bristol-Myers Squibb Company, priority 2005, dated 2009).
pIC50: −log10 of the molar value.

Assays:
TrkB = biological target: T1, TrkB (Homo sapiens, UniProt Q16620); assay: TrkB tyrosine kinase inhibition, recombinant enzyme, polyGluTyr phosphorylation (33P-ATP filter assay); assay type: biochemical; conditions: kinase domain of human TrkB (amino acids 526-838), His-fusion; 0.1 mg/ml PGT, 30 uM ATP, 1 hour at 30° C.
T1 construct: The kinase domain of the human TrkB receptor (amino acids 526-838); His; purchased Invitrogen; host or cells: insect cells
T1 sequence (Q16620 510-822): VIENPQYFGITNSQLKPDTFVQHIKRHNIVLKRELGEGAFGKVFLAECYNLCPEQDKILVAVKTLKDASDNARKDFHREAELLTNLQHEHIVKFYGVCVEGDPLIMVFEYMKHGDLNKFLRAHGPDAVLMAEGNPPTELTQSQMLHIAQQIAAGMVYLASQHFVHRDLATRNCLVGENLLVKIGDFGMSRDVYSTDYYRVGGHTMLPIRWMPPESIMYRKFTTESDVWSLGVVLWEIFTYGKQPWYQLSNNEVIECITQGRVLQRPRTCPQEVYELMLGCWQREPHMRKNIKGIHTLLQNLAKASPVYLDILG
Description: The ability of compounds of the invention to inhibit tyrosine kinase activity of TrkB may be measured using a recombinant enzyme in an assay that measures the ability of compounds to inhibit the phosphorylation of the exogenous substrate, polyGluTyr (PGT, 4:1). The kinase domain of the human TrkB receptor (amino acids 526-838) is expressed in insect cells as a histidine (His)-fusion protein and is commercially available from Invitrogen™. The enzyme assay is performed in a 96-well plate. Test compounds are first dissolved in dimethylsulfoxide (DMSO) and then serially-diluted in a 96-well plate. The serially-diluted compounds are transferred to the 96-well assay plate so that the final concentration of DMSO in the enzyme assay is 1.64%. All assay components are diluted in phosphorylation buffer (20 mm MOPS, 10 mM MgCl2, 1 mM EDTA, 0.015% Brij-35, 0.1 mg/ml BSA, 0.0025% Beta-Mercaptoethanol). The recombinant enzyme is added to the assay plate containing test compound and the reaction is initiated with a substrate solution containing a final concentration of 0.1 mg/ml PGT, 30 uM ATP, and 0.008 mCi/ml ^33P-gammaATP (3000 Ci/mmol)(Perkin Elmer™) After a 1 hour incubation at 30° C., the reaction is terminated with 10% TCA and incubated at 4° C. for 1 hour. The reaction is filtered onto a Unifilter® GF/C™ filter plate that has been presoaked with 0.1 M NaPyrophosphate. Microscint-20 is then added to the dried filter plate and the captured ^33P-phosphorylated PGT is quantitated on a microscintillation plate counter (TopCount·NXT™).

TrkA = biological target: T2, TrkA (Homo sapiens, UniProt P04629); assay: TrkA tyrosine kinase inhibition, recombinant enzyme, polyGluTyr phosphorylation (33P-ATP filter assay); assay type: biochemical; conditions: kinase domain of human TrkA, His-fusion; 0.1 mg/ml PGT, 30 uM ATP, 1 hour at 30° C.
T2 construct: The kinase domain of the human TrkA receptor is expressed in Sf9 insect cells as a histidine (His)-fusion protein; His; made in house; host or cells: Sf9 insect cells (baculovirus)
T2 sequence (P04629 510-781 limits assumed): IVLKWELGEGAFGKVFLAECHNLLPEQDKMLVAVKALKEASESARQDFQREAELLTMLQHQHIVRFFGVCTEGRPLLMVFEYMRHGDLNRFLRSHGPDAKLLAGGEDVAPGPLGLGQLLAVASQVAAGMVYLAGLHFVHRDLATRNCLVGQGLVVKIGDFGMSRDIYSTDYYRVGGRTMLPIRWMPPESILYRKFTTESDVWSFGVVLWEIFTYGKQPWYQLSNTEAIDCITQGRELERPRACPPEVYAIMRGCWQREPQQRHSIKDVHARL
Source text: The ability of compounds of the invention to inhibit tyrosine kinase activity of TrkA may be measured using a recombinant enzyme in an assay that measures the ability of compounds to inhibit the phosphorylation of the exogenous substrate, polyGluTyr (PGT, 4:1). The kinase domain of the human TrkA receptor is expressed in Sf9 insect cells as a histidine (His)-fusion protein using a baculovirus expression system. The protein is purified from the lysates of these cells using an Ni-NTA affinity column. After the recombinant enzyme is purified, it is activated by incubation with cold ATP. The enzyme assay is performed in a 96-well plate. Test compounds are first dissolved in dimethylsulfoxide (DMSO) and then serially-diluted in a 96-well plate. The serially-diluted compounds are transferred to the 96-well assay plate so that the final concentration of DMSO in the enzyme assay is 1.64%. All assay components are diluted in phosphorylation buffer (20 mm MOPS, 10 mM MgCl2, 1 mM EDTA, 0.015% Brij-35, 0.1 mg/ml BSA, 0.0025% Beta-Mercaptoethanol). The recombinant enzyme is added to the assay plate containing test compound and the reaction is initiated with a substrate solution containing a final concentration of 0.1 mg/ml PGT, 30 uM ATP, and 0.008 mCi/ml ^33P-gammaATP (3000 Ci/mmol). After a 1 hour incubation at 30° C., the reaction is terminated with 10% TCA and incubated at 4° C. for 1 hour. The reaction is filtered onto a Unifilter® GF/C™ filter plate that has been presoaked with 0.1 M NaPyrophosphate. Microscint-20 is then added to the dried filter plate and the captured ^33P-phosphorylated PGT is quantitated on a microscintillation plate counter (TopCount·NXT™).

pIC50 (TrkB)	pIC50 (TrkA)	SMILES
9.00	8.52	CN(C)CCCc1cc(C(=O)c2cccc(NC(=O)Nc3ccc(Cl)cc3Cl)c2)c2c(N)ncnn12 [Example 67, 1-[3-({4-amino-7-[3-(dimethylamino)propyl]Pyrrolo[2,1-f][1,2,4]triazin-5-yl}carbonyl)phenyl]-3-(2,4-dichlorophenyl)urea]
9.00	8.70	CC(C)c1cc(C(=O)c2cccc(NC(=O)Nc3ccc(OCc4ccccc4)cc3)c2)c2c(N)ncnn12 [Example 33, 1-{3-[(4-amino-7-isopropyl-pyrrolo[2,1-f][1,2,4]triazin-5-yl)carbonyl]phenyl}-3-[4-(benzyloxy)phenyl]urea]
7.82	8.05	CC(C)c1cc(C(=O)c2cccc(NC(=O)Nc3ccncc3)c2)c2c(N)ncnn12 [Example 63, 1-{3-[(4-amino-7-isopropyl-pyrrolo[2,1-f][1,2,4]triazin-5-yl)carbonyl]phenyl}-3-pyridin-4-ylurea]
> 9.00	8.70	CC(C)c1cc(C(=O)c2cccc(NC(=O)Nc3ccccc3)c2)c2c(N)ncnn12 [Example 9, 1-{3-[(4-amino-7-isopropyl-pyrrolo[2,1-f][1,2,4]triazin-5-yl)carbonyl]phenyl}-3-phenylurea]
7.44	7.77	CC(C)c1cc(C(=O)c2cccc(NC(=O)NCC3CCCCC3)c2)c2c(N)ncnn12 [Example 37, 1-{3-[(4-amino-7-isopropyl-pyrrolo[2,1-f][1,2,4]triazin-5-yl)carbonyl]phenyl}-3-(cyclohexylmethyl)urea]
9.00	> 9.00	CC(C)c1cc(C(=O)c2cccc(NC(=O)Nc3ccc4ccccc4c3)c2)c2c(N)ncnn12 [Example 46, 1-{3-[(4-amino-7-isopropyl-pyrrolo[2,1-f][1,2,4]triazin-5-yl)carbonyl]phenyl}-3-(2-naphthyl)urea]
9.00		CC(C)c1cc(C(=O)c2cccc(NC(=O)Nc3ccc(Cl)cc3Cl)c2)c2c(N)ncnn12 [Example 1, 1-{3-[(4-amino-7-isopropylpyrrolo [2,1-f][1,2,4]triazin-5-yl)carbonyl]phenyl}-3-(2,4-dichlorophenyl)urea]
8.10	7.68	CC(C)c1cc(C(=O)c2cccc(NC(=O)NCCCc3ccccc3)c2)c2c(N)ncnn12 [Example 61, 1-{3-[(4-amino-7-isopropyl-pyrrolo[2,1-f][1,2,4]triazin-5-yl)carbonyl]phenyl}-3-(3-phenylpropyl)urea]
